Reference: patent US20240139142A1, “METHOD FOR PREVENTING OR TREATING LIVER DISEASE” (priority 2022, published 2024)

Tests used:
[1] = test system: human normal liver cell line THLE-2; assay: MTS assay cell growth, selectivity test; format: cell-based
From the text: Preferable small molecule anticancer drugs must have higher selectivity to cancer cells, thereby reducing the toxicity and side effects in the normal cells and the dosage being taken. The selectivity of isothiocyanate structural modified compound of the present disclosure to liver hepatocellular carcinoma cells was examined by using human normal liver cell line THLE-2 and liver hepatocellular carcinoma cell line SNU-449. After treating liver hepatocellular carcinoma cell line and normal liver cell line by isothiocyanate structural modified compounds P1130 or PCH1152, the cell growth was evaluated by MTS assay.

[2] = test system: human normal liver cell line THLE-2; assay: Western blot, apoptosis and ABCC2/Mcl-1/Twist expression; format: cell-based; conditions: low concentration
[3] = test system: Hepatitis B virus-induced ROS in Huh-7 cells; assay: Removal of HBV-induced ROS, DHE fluorescence; format: cell-based, human; conditions: Huh-7 transfected with pGEM C12, 5 μM PCH1152, 10 μM NAC
Experimental: To examine the effect of PCH1152, NAC or the combination thereof on removing HBV-induced ROS, the Huh-7 cells were remained untreated, or treated with 5 μM PCH1152, 10 μM NAC or 5 μM PCH 1152 plus 10 μM NAC. The ROS was examined by DHE fluorescence, and the difference between each group was compared by Tukey's Multiple Comparison Test.

[4] = Safety test, median lethal dose (LD50), intravenous injection; format: in vivo; conditions: in vivo, mouse
Experimental: (§1) The mouse xenograft model of liver hepatocellular carcinoma was administered with different concentrations of PCH1152 or P1130 via intravenous injection, and the median lethal dose (LD50) was calculated by the number of death and dosage.

[5] = test system: mouse xenograft model of liver hepatocellular carcinoma; assay: as above; format: in vivo
Experimental: as §1

[6] = test system: liver hepatocellular carcinoma cell line with Nexavar drug resistance; assay: Protein expression and apoptosis in drug-resistant cell line; format: cell-based
From the text: WT: wild-type liver hepatocellular carcinoma cell line. R: Nexavar-drug resistance-liver hepatocellular carcinoma cell line.
After treating liver hepatocellular carcinoma cell line with Nexavar drug resistance by PCH1130 or PCH1152, the expressions of molecules such as USP22, ABCC1, ABCC2 and Twist in liver hepatocellular carcinoma may be decreased, and the expressions of cleaved Caspase-8 and PARP may be increased, which induced the apoptosis of liver hepatocellular carcinoma cells.

[7] = format: physicochemical; conditions: after 16 days
[8] = test system: liver hepatocellular carcinoma cell line Mahlavu; assay: MTS analysis, growth inhibition (GI50); format: cell-based; conditions: read-out: GI50, Mahlavu liver hepatocellular carcinoma cell line
[9] = test system: liver hepatocellular carcinoma cell line SNU-449; assay: MTS analysis, growth inhibition (GI50); format: cell-based
[10] = test system: liver tumor in Hepatitis B virus (HBV) transgenic mouse; format: in vivo
Experimental: To examine the incidence rate of mouse liver tumor under long-term PCH1152 administration, PCH1152 was added into the drinking water of the mice when the mice were three-month-old, and the drinking water was replaced every 7 to 14 days. The termination of the experiment was set at 19 months, and the blood of the mice started to be collected every 2 to 3 months when the mice were 9-month-old, and the ALT values of the serum were measured. When the ALT of the serum were higher than 150 U/L twice in a row, the mice were sacrificed and the developments of the liver tumors thereof were observed.

[11] = test system: SNU-449 liver hepatocellular carcinoma cell line; assay: Western blot, apoptosis and ABCC2/Mcl-1/Twist expression; format: cell-based; conditions: low concentration
[12] = test system: Mahlavu liver hepatocellular carcinoma cell line subcutaneous tumor; assay: Mouse xenograft model, oral PCH1152; format: in vivo, nude mice; conditions: 0.6 mg/mouse/day orally
Experimental: Seven days after subcutaneously injecting 1×10^6 Mahlavu liver hepatocellular carcinoma cell line into nude mice, PCH1152 (0.6 mg/mouse/day) began to be orally administered to the mice. After continuously administrating the drug orally for 45 days, the mice were sacrificed and their subcutaneous tumor were taken and analyzed.

[13] = test system: SNU-449 liver hepatocellular carcinoma cell line; assay: Expression of ABCC2, Twist and Mcl-1 after treatment; format: cell-based; conditions: 2.5 μM, 64 hours
From the text: (§2) The process of trans-differentiating epithelial cells into motile mesenchymal cells is called epithelial-mesenchymal transition (EMT). EMT is indispensable in development, wound healing and stem cell behavior, and may induce fibrosis and carcinogenesis pathologically. In addition, EMT plays an important role in liver fibrosis, liver cirrhosis and liver hepatocellular carcinoma. […] Moreover, EMT may increase the anti-apoptosis effect, which will result in the development of drug resistance in cancer treatment, and induce the development of stemness of the cancer cells, as well as increase the number of cancer stem cells. The cancer stem cell is one of the important factors in the progression, recurrence, metastasis and drug resistance of the cancer. There is an evidence that in the samples of the liver hepatocellular carcinoma patients with poor prognosis, the overexpressions of Twist and Snail were observed. […] The results above represent that isothiocyanate structural modified compound of the present disclosure may prevent liver carcinogenesis and the growth, invasion, metastasis, progression and recurrence of liver hepatocellular carcinoma via inhibiting epithelial-mesenchymal transition, anti-apoptosis and/or inhibiting drug resistance.

[14] = test system: Mahlavu liver hepatocellular carcinoma cell line; assay: as above; format: cell-based; conditions: 2.5 μM, 64 hours
From the text: as §2

[15] = test system: P62 and LC3B in HBV transgenic mouse liver tissue; assay: Autophagy markers in liver tissue, western blot; format: in vivo
Experimental: The liver tissues of the mice with or without liver hepatocellular carcinoma in the example 7 were analyzed by western blot (FIG. 8A), and quantitative analysis was performed via Image J software (FIG. 8B). P62 protein accumulated in the cells when the autophagy was forbidden, and it was degraded when the autophagy started-up. Therefore, P62 protein may be a biomarker of autophagy. […] Moreover, LC3B protein is the subunit of the microtubule-related protein, which has different protein isomers. After the autophagy being started, LC3B I isomer will be transformed into LC3B II isomer. […] The results above indicate that PCH1152 may enhance autophagy, i.e. may inhibit abnormal “anti-autophagy” effect, thereby preventing the development of liver hepatocellular carcinoma. **p<0.01; ***p<0.001; unpaired t-test.

[16] = test system: hepatic lipid accumulation and fibrosis in HBV transgenic mouse liver; assay: Oil Red and Sirius Red staining of liver tissue; format: in vivo; conditions: treated mice without liver hepatocellular carcinoma vs control group
[17] = test system: Antimycin A-induced ROS in LX-2 cells; assay: Removal of Antimycin A-induced ROS, DHE fluorescence; format: cell-based; conditions: 2.5 μM PCH1152, 24 hours
From the text: ROS was examined by DHE fluorescence, and the difference between each group was compared by Tukey's Multiple Comparison Test.

[18] = test system: SNU-449 liver hepatocellular carcinoma cell line; assay: Western blot of apoptosis markers (cleaved caspase 8, cleaved PARP); format: cell-based; conditions: 0.3 μM, 0, 24, 48 and 72 hours
Experimental: SNU-449 liver hepatocellular carcinoma cell line was treated by 0.3 μM isothiocyanate structural modified compounds P1130 and PCH1152, and natural isothiocyanate compound PEITC, and the control group was treated by DSMO. After extracting the proteins in the cells at different time points, such as 0, 24, 48 and 72 hours, analysis and comparison were performed by using western blot. […] The results represent that the two structural modified compounds described above effectively promoted the apoptosis of the liver hepatocellular carcinoma cells (FIG. 1).

[19] = test system: liver hepatocellular carcinoma cell line SNU-449; assay: MTS assay cell growth, selectivity test; format: cell-based
[20] = long-term treatment in drinking water

Compound: Oc1ccc(CCN=C=S)cc1 [PCH1152]
- effect on cell viability of human normal liver cell line [1]: not significant
- apoptosis promotion and inhibition of ABCC2, Mcl-1, Twist in human normal liver cell line [2]: no such effect
- HBV-induced ROS increasement [3]: significantly reduce
- LD50 [4]: 30 to 100 mg/kg
- toxicity relative to existing anticancer drug, e.g. Taxotere [5]: comparable
- effect on drug resistance in liver hepatocellular carcinoma [6]: reversing the drug resistance
- expressions of USP22, ABCC1, ABCC2 and Twist [6]: decreased
- expressions of cleaved Caspase-8 and PARP [6]: increased
- structural stability in the drinking water of the mice [7]: higher than 98%
- GI50 [8]: 1540 nM
- GI50 ([9]; Homo sapiens, SNU-449, read-out: GI50, SNU-449 liver hepatocellular carcinoma cell line): 890 nM
- increase of the ability of inhibiting the growth of the liver hepatocellular carcinoma cell line ([9]; compared to natural isothiocyanate compounds BITC or PEITC): 12 times
- reduction of the incidence rate of liver tumor ([10]; compared to control group): more than 30%
- age at which serum ALT increased to over 150 U/L in 50% of the mice ([10]; control group 19.5-month old): 21 month old
- volume of the liver tumor ([10]; long-term treatment): significantly decrease
- weight of the liver tumor ([10]; long-term treatment): significantly decrease
- impact on daily food intake [10, 20]: did not have any significant impact
- impact on daily water intake [10, 20]: did not have any significant impact
- impact on weight [10, 20]: did not have any significant impact
- apoptosis of liver hepatocellular carcinoma cell line [11]: promote apoptosis
- expressions of ABCC2, Mcl-1 and Twist [11]: inhibit the expressions
- death of mice during the experiment ([12]; 45 days): No mouse dead
- effect on daily food intake ([12]; 45 days): did not have any significant effect
- effect on mouse weight ([12]; 45 days): did not have any significant effect
- value of ALT in the mouse ([12]; 45 days): decrease
- subcutaneous tumor volume ([12]; 45 days, vs control group): significantly smaller
- expressions of ABCC1, USP22 and Mcl-1 in subcutaneous tumor ([12]; western blot): significant lower
- expressions of ABCC2, Twist and Mcl-1 [13]: inhibition
- expressions of ABCC2, Twist and Mcl-1 [14]: inhibition
- effect on autophagy ([15]; liver tissue): significantly enhance autophagy
- P62 protein in liver tissue (ratio of P62 and Hsc70) ([15]; treated mouse without carcinoma vs mouse developing carcinoma, western blot): significantly lower
- ratio of LC3B II and LC3B I ([15]; vs control group, western blot): higher
- region of the lipid accumulation in liver tissue ([16]; Oil Red): reduced significantly
- region of fibrosis in liver tissue ([16]; Sirius Red): reduced significantly
- Antimycin A-induced ROS increasement [17]: significantly reduce
- expression levels of cleaved caspase 8 and cleaved PARP [18]: significantly increased
- cell viability of liver hepatocellular carcinoma cell line ([19]; MTS assay, SNU-449): substantially decreased
- selectivity between liver hepatocellular carcinoma cell and normal liver cell ([19]; SNU-449 vs THLE-2, MTS assay): better cell growth inhibition selectivity
